The record followed here is patent publication US20240209028A1, “CNP COMPOUNDS” (priority 2022, published 2024).

What is called EC50 is the concentration giving half of the maximal effect.

In the assay the target is T1, human natriuretic peptide receptor 2 (hNPR2) (Homo sapiens, UniProt P20594).
T1 construct: expressed in transfected cells; host or cells: HEK293 (ATCC CRL-1573), clone 35, co-transfected with pGloSensor-42F
T1 sequence (P20594 23-1047): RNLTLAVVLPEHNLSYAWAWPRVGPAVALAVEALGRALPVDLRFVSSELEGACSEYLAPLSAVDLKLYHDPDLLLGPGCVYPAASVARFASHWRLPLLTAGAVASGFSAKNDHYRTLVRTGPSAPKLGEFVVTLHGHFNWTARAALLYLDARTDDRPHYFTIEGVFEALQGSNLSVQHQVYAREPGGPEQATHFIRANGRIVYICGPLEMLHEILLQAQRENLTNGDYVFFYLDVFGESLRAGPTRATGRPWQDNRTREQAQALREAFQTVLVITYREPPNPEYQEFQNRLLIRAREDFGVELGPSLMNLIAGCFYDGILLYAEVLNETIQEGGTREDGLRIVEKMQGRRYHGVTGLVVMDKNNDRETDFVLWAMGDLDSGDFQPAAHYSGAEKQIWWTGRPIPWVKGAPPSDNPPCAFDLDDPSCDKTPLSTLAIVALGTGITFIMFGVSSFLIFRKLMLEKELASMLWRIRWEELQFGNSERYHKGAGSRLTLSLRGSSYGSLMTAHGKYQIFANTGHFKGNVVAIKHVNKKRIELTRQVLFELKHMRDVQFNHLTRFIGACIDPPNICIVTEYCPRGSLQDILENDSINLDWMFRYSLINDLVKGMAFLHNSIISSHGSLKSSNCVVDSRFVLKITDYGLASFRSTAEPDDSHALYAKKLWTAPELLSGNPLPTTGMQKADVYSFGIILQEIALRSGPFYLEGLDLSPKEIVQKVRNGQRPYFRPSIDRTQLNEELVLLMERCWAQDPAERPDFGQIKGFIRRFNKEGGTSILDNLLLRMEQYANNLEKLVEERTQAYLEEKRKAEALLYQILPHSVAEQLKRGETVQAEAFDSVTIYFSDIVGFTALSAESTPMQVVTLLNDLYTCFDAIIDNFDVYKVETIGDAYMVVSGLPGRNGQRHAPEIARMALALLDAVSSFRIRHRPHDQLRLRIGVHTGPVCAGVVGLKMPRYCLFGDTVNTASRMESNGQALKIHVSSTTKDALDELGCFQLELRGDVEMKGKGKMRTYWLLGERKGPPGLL
Put plainly: In vitro hNPR2 activity assay (cGMP GloSensor reporter, HEK293). In kind it is cell-based. The note with it: for hNPR2 0% HSA. [EC50% rel CNP]: potency relative to CNP22 (0065); for EC50: 0% HSA, HEK293-hNPR2/GloSensor cells. The procedure: To evaluate the in vitro activity of CNP22 (0065; Chem. 1) and CNP compounds of the invention, they were tested for their ability to induce production of cyclic guanosine monophosphate (cGMP) in reporter cells expressing the human natriuretic peptide receptor 2 (hNPR2).
Cell culture: To produce the reporter cell line, HEK293 (ATCC® CRL-1573™) cells were stably transfected with the pGloSensor-42F reporter plasmid (GloSensor cGMP reporter—luciferase, Promega) and an expression plasmid encoding the hNPR2 receptor. A single cell clone was isolated for the reporter cell line. When reporter cells are exposed to an hNPR2 activating compound, hNPR2 cause production of cGMP. […] Active GloSensor luciferase is able to convert luciferin to oxyluciferin, a process that produces bioluminescence. Upon cell lysis and supply of luciferase substrate, luciferase activity can be quantified by detection of luminescence. Therefore, addition of an hNPR2 activating compound and subsequent addition of detection reagent to reporter cells causes generation of luminescence in a dose dependent manner. […] This measure, also referred to as in vitro potency, is reported for all compounds tested. In all the in vitro activity experiments, CNP22 was used as a positive in-plate control for hNPR2 activation. To reduce inter-assay variation, we also report the potency of each compound relative to the potency of the CNP22 control on each plate.
Procedure: HEK293-hNPR2/GloSensor clone 35 cells were continuously cultured in selection medium (DMEM containing 10% FCS, 1% P/S, 200 μg/mL G418 and 100 μg/mL hygromycin). To perform the assay, cells were detached with TrypLE Express (Gibco #12604013), put through a 70 μm cell strainer, counted and seeded in 30 μL/well assay medium (DMEM without phenol red and with 1% P/S) at 10,000 cells/well in white 384-well plates (Perkin Elmer #6007680) overnight. The following day, test compounds were serial diluted in dilution medium (DMEM without phenol red containing 1% OVA (Sigma #A5505 lot 04M7001V), 0.01% Tween20 (Roche #33766700) and 1% P/S) and 10 μL/well of diluted test compounds were subsequently added to the cells. For each compound, ten different concentrations in the range 0.25 μM-10 μM were tested. After 30 min of incubation at 37° C. and 5% CO2, 40 μL/well Bright-Glo detection reagent (Promega #E2650) was added. […] To determine the in vitro potency or EC50 of each test compound, a four parameter logistic regression was done on the raw data for each test compound using the Python package SciPy optimize. The average EC50 values are listed as “hNPR2 0% HSA. [EC50 (nM)]” in Table 2. A relative potency was calculated by the following expression: EC50 (CNP22 in-plate control)/EC50 (test compound)*100, shown as “hNPR2 0% HSA. [EC50% rel CNP]” in Table 2. A minimum of two replicates was measured for each test compound.

Starred links: 1 amine or outer side, 2 acyl side, 3 side chain; linkers in the order of their positions; H or OH if unused. Positions of bridges follow the written chain, without caps; N, C: chain ends. Residues, ends and D or L forms follow the SMILES beside them. *: point of attachment. C18 diacid = O=C(O)CCCCCCCCCCCCCCCCC(=O)*; γGlu = O=C(O)[C@H](CCC(=O)[*:2])N[*:1]; AEEA = NCCOCCOCC(=O)O

As for `CC[C@H](C)[C@@H]1NC(=O)[C@H](CCCNC(=N)N)NC(=O)[C@H](CC(=O)O)NC(=O)[C@H](CC(C)C)NC(=O)[C@H](CCCCN)NC(=O)[C@H](CC(C)C)NC(=O)CNC(=O)[C@H](Cc2ccccc2)NC(=O)[C@@H](NC(=O)CNC(=O)[C@H](CCCCN)NC(=O)[C@H](CO)NC(=O)[C@H](CC(C)C)NC(=O)CN)CSSC[C@@H](C(=O)O)NC(=O)CNC(=O)[C@H](CC(C)C)NC(=O)CNC(=O)[C@H](CO)NC(=O)[C@H](CCSC)NC(=O)[C@H](CO)NC(=O)CNC1=O` [compound 0065], the “hNPR2 0% HSA. [EC50% rel CNP]” value came out at 100.0%.
Regarding `CC[C@H](C)[C@@H]1NC(=O)[C@H](CCCNC(=N)N)NC(=O)[C@H](CC(=O)O)NC(=O)[C@H](CC(C)C)NC(=O)[C@H](CCCCN)NC(=O)[C@H](CC(C)C)NC(=O)CNC(=O)[C@H](Cc2ccccc2)NC(=O)[C@@H](NC(=O)CNC(=O)[C@H](CCCCN)NC(=O)[C@H](CO)NC(=O)[C@H](CC(C)C)NC(=O)CNC(=O)COCCOCCNC(=O)COCCOCCNC(=O)CC[C@H](NC(=O)CCCCCCCCCCCCCCCCC(=O)O)C(=O)O)CSSC[C@@H](C(=O)O)NC(=O)CNC(=O)[C@H](CC(C)C)NC(=O)CNC(=O)[C@H](CO)NC(=O)[C@H](CCSC)NC(=O)[C@H](CO)NC(=O)CNC1=O` [compound 0089], the EC50 worked out at 12.3 nM and the “hNPR2 0% HSA. [EC50% rel CNP]” value came out at 3.1%.
The corresponding values for `CC[C@H](C)[C@@H]1NC(=O)[C@H](CCCNC(=N)N)NC(=O)[C@H](CC(=O)O)NC(=O)[C@H](CC(C)C)NC(=O)[C@H](CCCCN)NC(=O)[C@H](CC(C)C)NC(=O)CNC(=O)[C@H](Cc2ccccc2)NC(=O)[C@@H](NC(=O)CNC(=O)[C@H](CCCCN)NC(=O)[C@H](CO)NC(=O)[C@H](CC(C)C)NC(=O)CNC(=O)COCCOCCNC(=O)COCCOCCNC(=O)COCCOCCNC(=O)COCCOCCNC(=O)COCCOCCNC(=O)COCCOCCNC(=O)COCCOCCNC(=O)COCCOCCNC(=O)CC[C@H](NC(=O)CCCCCCCCCCCCCCCCC(=O)O)C(=O)O)CSSC[C@@H](C(=O)O)NC(=O)CNC(=O)[C@H](CC(C)C)NC(=O)CNC(=O)[C@H](CO)NC(=O)[C@H](CCSC)NC(=O)[C@H](CO)NC(=O)CNC1=O` [compound 0231] are 14.5 nM and 0.8%.
The corresponding values for `CC[C@H](C)[C@@H]1NC(=O)[C@H](CCCNC(=N)N)NC(=O)[C@H](CC(=O)O)NC(=O)[C@H](CC(C)C)NC(=O)[C@H](CCCCN)NC(=O)[C@H](CC(C)C)NC(=O)CNC(=O)[C@H](Cc2ccccc2)NC(=O)[C@@H](NC(=O)CNC(=O)[C@H](CCCCN)NC(=O)[C@H](CO)NC(=O)[C@H](CC(C)C)NC(=O)CNC(=O)[C@H](CCCCN)NC(=O)[C@H](CCCCN)NC(=O)[C@H](CCC(N)=O)NC(=O)[C@H](C)NC(=O)CNC(=O)[C@H](CCC(=O)O)NC(=O)[C@H](Cc2ccc(O)cc2)NC(=O)COCCOCCNC(=O)COCCOCCNC(=O)CC[C@H](NC(=O)CCCCCCCCCCCCCCCCC(=O)O)C(=O)O)CSSC[C@@H](C(=O)O)NC(=O)CNC(=O)[C@H](CC(C)C)NC(=O)CNC(=O)[C@H](CO)NC(=O)[C@H](CC(C)C)NC(=O)[C@H](CO)NC(=O)CNC1=O` [compound 1221] are 1.17 nM and 35.9%.
For `CC[C@H](C)[C@@H]1NC(=O)[C@H](CCCNC(=N)N)NC(=O)[C@H](CC(=O)O)NC(=O)[C@H](CC(C)C)NC(=O)[C@H](CCCCN)NC(=O)[C@H](CC(C)C)NC(=O)CNC(=O)[C@H](Cc2ccccc2)NC(=O)[C@@H](NC(=O)CNC(=O)[C@H](CCCCN)NC(=O)[C@H](CO)NC(=O)[C@H](CC(C)C)NC(=O)CNC(=O)[C@H](CCCCN)NC(=O)[C@H](CCCCN)NC(=O)[C@H](CCC(N)=O)NC(=O)[C@H](C)NC(=O)CNC(=O)[C@H](CCC(=O)O)NC(=O)[C@H](CCC(=O)O)NC(=O)COCCOCCNC(=O)COCCOCCNC(=O)CC[C@H](NC(=O)CCCCCCCCCCCCCCCCC(=O)O)C(=O)O)CSSC[C@@H](C(=O)O)NC(=O)CNC(=O)[C@H](CC(C)C)NC(=O)CNC(=O)[C@H](CO)NC(=O)[C@H](CC(C)C)NC(=O)[C@H](CO)NC(=O)CNC1=O` [compound 1222] the same measures were 2.94 nM and 14.3%.
Take `CC[C@H](C)[C@@H]1NC(=O)[C@H](CCCNC(=N)N)NC(=O)[C@H](CC(=O)O)NC(=O)[C@H](CC(C)C)NC(=O)[C@H](CCCCN)NC(=O)[C@H](CC(C)C)NC(=O)CNC(=O)[C@H](Cc2ccccc2)NC(=O)[C@@H](NC(=O)CNC(=O)[C@H](CCCCN)NC(=O)[C@H](CO)NC(=O)[C@H](CC(C)C)NC(=O)CNC(=O)[C@H](CCCCN)NC(=O)[C@H](CCC(=O)O)NC(=O)[C@H](CCC(N)=O)NC(=O)[C@H](C)NC(=O)CNC(=O)[C@H](CCC(=O)O)NC(=O)[C@H](Cc2ccc(O)cc2)NC(=O)COCCOCCNC(=O)COCCOCCNC(=O)CC[C@H](NC(=O)CCCCCCCCCCCCCCCCC(=O)O)C(=O)O)CSSC[C@@H](C(=O)O)NC(=O)CNC(=O)[C@H](CC(C)C)NC(=O)CNC(=O)[C@H](CO)NC(=O)[C@H](CC(C)C)NC(=O)[C@H](CO)NC(=O)CNC1=O` [compound 1223] ({C18 diacid-γGlu-AEEA-AEEA}-YEGAQEKGLSKGCFGLKLDRIGSLSGLGC-OH; disulfide 13-29): the response was half-maximal at 1.05 nM (EC50) and the “hNPR2 0% HSA. [EC50% rel CNP]” value is given as 6.77%.
For `CC[C@H](C)[C@@H]1NC(=O)[C@H](CCCNC(=N)N)NC(=O)[C@H](CC(=O)O)NC(=O)[C@H](CC(C)C)NC(=O)[C@H](CCCCN)NC(=O)[C@H](CC(C)C)NC(=O)CNC(=O)[C@H](Cc2ccccc2)NC(=O)[C@@H](NC(=O)CNC(=O)[C@H](CO)NC(=O)[C@H](CO)NC(=O)[C@H](CC(C)C)NC(=O)CNC(=O)[C@H](CCCCN)NC(=O)[C@H](CCCCN)NC(=O)[C@H](CCC(N)=O)NC(=O)[C@H](C)NC(=O)CNC(=O)[C@H](CCC(=O)O)NC(=O)[C@H](Cc2ccc(O)cc2)NC(=O)COCCOCCNC(=O)COCCOCCNC(=O)CC[C@H](NC(=O)CCCCCCCCCCCCCCCCC(=O)O)C(=O)O)CSSC[C@@H](C(=O)O)NC(=O)CNC(=O)[C@H](CC(C)C)NC(=O)CNC(=O)[C@H](CO)NC(=O)[C@H](CC(C)C)NC(=O)[C@H](CO)NC(=O)CNC1=O` [compound 1224] ({C18 diacid-γGlu-AEEA-AEEA}-YEGAQKKGLSSGCFGLKLDRIGSLSGLGC-OH; disulfide 13-29) the same measures were 0.86 nM and 16.9%.
